Key:
HCV genotype 1b replicon = HCV genotype 1b replicon assay (Renilla luciferase readout); type: cell-based, hepatitis C virus; details: HCV genotype 1b replicon
Source text: Assay 1: HCV Genotype 1b Replicon Assay
The HCV genotype 1b replicon cell line was obtained from Apath LLC (Brooklyn, N.Y.) (APC144; Huh7 cell background). This subgenomic replicon contains the N-terminus of the HCV core protein fused to the neomycin-resistance selectable marker. The EMCV IRES lies downstream and drives expression of humanized Renilla luciferase fused to the non-structural proteins NS3-NS5B. This cell line was used to determine compound potency using the luciferase activity readout as a measurement of compound inhibition of replicon levels.
Cells were grown at 37° C. in a 5% CO2 humidified incubator in DMEM (Invitrogen) with 10% FBS (HyClone), 1×NEAA (Invitrogen), 1× Pen-Strep (Invitrogen), and 500 μg/mL G418 (Invitrogen). On day 1 of the assay, cells were plated at 10,000 cells/well in white 96-well tissue culture plates (Costar) in 200 μL media lacking G418. Four hours later, once the cells have adhered, the media was removed and replaced with media (no G418) containing dose-responses of test compounds. Compounds were initially diluted in DMSO and then diluted another 200× in media to bring the final DMSO concentration down to 0.5%. The cells were incubated with test compounds for 48 hours. At the end of the incubation period, media and compound were removed from the plates and the luciferase activity was determined using Promega Renilla-Glo reagents.
To analyze the data, the luciferase activity was plotted vs. the compound concentration, and EC50 values were determined from a 4-parameter robust fit model with the GraphPad Prism software package (GraphPad Software, Inc., San Diego, Calif.). Results are expressed as the negative decadic logarithm of the EC50 value, pEC50.
Test compounds having a higher pEC50 value in this assay show greater inhibition of HCV genotype 1b replication.

HCV genotype 1a replicon = HCV genotype 1a replicon assay (NS3 protease activity readout); type: cell-based, hepatitis C virus; details: for Genotype 1a: HCV genotype 1a replicon; for EC50: Hepatitis C virus, read-out: Genotype 1a, HCV genotype 1a replicon
Outline: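 EC50 values came from a 4-parameter robust fit of fluorescence (ex 340, em 509 nm) produced by NS3-specific protease in lysates, assayed with 15 μM FRET substrate for 20 min at 37° C, after 48 or 72 hours of compound exposure (0.5% DMSO) of Huh7.5-derived APC89 genotype 1a replicon cells.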

Row | SMILES | Genotype 1b (HCV genotype 1b replicon) | Genotype 1a (HCV genotype 1a replicon) | EC50 (HCV genotype 1a replicon) [nM]
1 | COC(=O)N[C@H](C(=O)N1C[C@@H](C)C[C@H]1c1nc(-c2ccc(-c3cc(Cl)c(NC(=O)c4ccc(N5CCN(C(=O)c6nccn6C)C[C@H]5C)nc4)cc3OC(F)(F)F)cc2)c[nH]1)C(C)C [Example 1-36] | D (D represents pEC50>10 (EC50<0.1 nM)) | D (D represents pEC50>10 (EC50<0.1 nM)) | 
2 | COC(=O)N[C@H](C(=O)N1C[C@@H](OC)C[C@H]1c1nc(-c2ccc(-c3cc(Cl)c(NC(=O)c4ccc(N5CCN(C(=O)[C@H]6CC6(C)C)C[C@H]5C)nc4)cc3OC(F)(F)F)cc2)c[nH]1)C1CCOCC1 [Example 28-11] | D (D represents pEC50>10 (EC50<0.1 nM)) | D (D represents pEC50>10 (EC50<0.1 nM)) | 
3 | COC(=O)N[C@H](C(=O)N1C[C@@H](C)C[C@H]1c1nc(-c2ccc(-c3ccc(C(=O)Nc4ccc(N5C[C@H](C)N(C(=O)[C@H]6CC6(C)C)C[C@H]5C)nc4)cc3OC(F)(F)F)cc2)c(Cl)[nH]1)C(C)C [Example 4-10] | D (D represents pEC50>10 (EC50<0.1 nM)) | D (D represents pEC50>10 (EC50<0.1 nM)) | 
4 | COC(=O)N[C@H](C(=O)N1C[C@@H](C)C[C@H]1c1nc(-c2ccc(-c3cc(Cl)c(C(=O)Nc4ccc(N5CCN(C(=O)[C@H]6CC6(C)C)C[C@H]5C)nc4)cc3OC(F)(F)F)cc2)c[nH]1)C1CCOCC1 [Example 22-5] | D (D represents pEC50>10 (EC50<0.1 nM)) | D (D represents pEC50>10 (EC50<0.1 nM)) | 
5 | COC(=O)N[C@H](C(=O)N1C[C@@H](C)C[C@H]1c1nc(-c2ccc(-c3cc(Cl)c(NC(=O)c4ccc(N5CCN(C(=O)C(C)(C)C(=O)O)C[C@H]5C)nc4)cc3OC(F)(F)F)cc2)c[nH]1)C(C)C [Example 12-58] |  |  | 0.1 to 1
6 | COC(=O)N[C@@H](C(=O)N1C[C@@H](C)C[C@H]1c1nc(-c2ccc(-c3cc(Cl)c(NC(=O)c4ccc(N5CCN(C(=O)C(C)(C)CO)C[C@H]5C)nc4)cc3C(F)(F)F)cc2)c[nH]1)C1CCCCC1 [Example 19-5] |  | A (A represents a pEC50 value between 6 and 8 (EC50 between 1 μM and 10 nM)) | 
7 | COC(=O)N[C@H](C(=O)N1C[C@@H](OC)C[C@H]1c1nc(-c2ccc(-c3ccc(NC(=O)c4ccc(N5CCN(C(=O)C(C)(C)CO)C[C@H]5C)nc4)cc3OC(F)(F)F)cc2)c[nH]1)C(C)C [Example 27-7] |  | D (D represents pEC50>10 (EC50<0.1 nM)) | 
8 | COC(=O)N[C@H](C(=O)N1C[C@@H](C)C[C@H]1c1nc(-c2ccc(-c3cc(Cl)c(NC(=O)c4ccc(N5CCN(C(=O)C(O)C(F)(F)F)C[C@H]5C)nc4)cc3OC(F)(F)F)cc2)c[nH]1)C(C)C (some centres unmarked) [Example 1-97] |  | C (C represents pEC50 between and 9 and about 10, (EC50 between 1 nM and 0.1 nM)) | 
9 | COC(=O)NC(C(=O)N1CC(F)CC1c1nc(-c2ccc(-c3cc(Cl)c(NC(=O)c4ccc(N5CCN(C(=O)C(C)(C)C)CC5C)nc4)cc3OC(F)(F)F)cc2)c[nH]1)C(C)C (centres unmarked) [Example 29-2] |  | C (C represents pEC50 between and 9 and about 10, (EC50 between 1 nM and 0.1 nM)) | 
10 | COCC(=O)N1CCC[C@@]1(C)C(=O)N1CCN(c2ccc(NC(=O)c3ccc(-c4ccc(-c5c[nH]c([C@@H]6CC(C)(C)CN6C(=O)[C@@H](NC(=O)OC)C(C)C)n5)cc4)c(OC(F)(F)F)c3)cn2)[C@H](C)C1 [Example 6-7] |  |  | < 0.1
11 | COC(=O)N[C@H](C(=O)N1C[C@@H](C)C[C@H]1c1nc(-c2ccc(-c3cc(Cl)c(NC(=O)c4ccc(N5CCN(C(=O)C(C)(C)CNC(=O)C6CC6)C[C@H]5C)nc4)cc3OC(F)(F)F)cc2)c[nH]1)C(C)C [Example 12-37] |  |  | 0.1 to 1
12 | COC(=O)N[C@H](C(=O)N1C[C@@H](C)C[C@H]1c1nc(-c2ccc(-c3cc(Cl)c(NC(=O)c4ccc(N5CCN(C(=O)C(C)(C)CNC(C)=O)C[C@H]5C)nc4)cc3OC(F)(F)F)cc2)c[nH]1)C(C)C [Example 12-42] |  |  | < 0.1
13 | COC(=O)N[C@H](C(=O)N1C[C@@H](C)C[C@H]1c1nc(-c2ccc(-c3cc(Cl)c(C(=O)Nc4ccc(N5CCN(C(=O)C(C)(C)C)C[C@@H]5C)nc4)cc3OC(F)(F)F)cc2)c[nH]1)C1CCOCC1 [24-2] |  | C (C represents pEC50 between and 9 and about 10, (EC50 between 1 nM and 0.1 nM)) | 
14 | COCC(=O)N1CCC[C@@]1(C)C(=O)N1CCN(c2ccc(NC(=O)c3ccc(-c4ccc(-c5c[nH]c([C@@H]6C[C@@H]7CCCC[C@@H]7N6C(=O)[C@@H](NC(=O)OC)C(C)C)n5)cc4)c(OC(F)(F)F)c3)cn2)[C@H](C)C1 [Example 6-13] |  |  | < 0.1
15 | COC(=O)N[C@H](C(=O)N1C[C@@H](C)C[C@H]1c1nc(-c2ccc(-c3cc(Cl)c(NC(=O)c4ccc(N5CCN(C(=O)C6CNC6)C[C@H]5C)nc4)cc3OC(F)(F)F)cc2)c[nH]1)C(C)C [Example 12-51] |  |  | 0.1 to 1
16 | COC(=O)NC(C(=O)N1C[C@@H](C)C[C@H]1c1nc(-c2ccc(-c3c(F)cc(NC(=O)c4ccc(N5CCN(C(=O)C(C)(C)C)C[C@H]5C)nc4)cc3F)cc2)c[nH]1)C1CCCCC1 (some centres unmarked) [Example 21-1] |  | A (A represents a pEC50 value between 6 and 8 (EC50 between 1 μM and 10 nM)) | 
17 | COC(=O)N[C@H](C(=O)N1C[C@@H](O)C[C@H]1c1nc(-c2ccc(-c3cc(Cl)c(NC(=O)c4ccc(N5CCN(C(=O)C(C)(C)C)C[C@H]5C)nc4)cc3OC(F)(F)F)cc2)c[nH]1)C1CCOCC1 [Example 26-10] |  | A (A represents a pEC50 value between 6 and 8 (EC50 between 1 μM and 10 nM)) | 
18 | COC(=O)N[C@H](C(=O)N1C[C@@H](OC)C[C@H]1c1nc(-c2ccc(-c3cc(Cl)c(NC(=O)c4ccc(N5CCN(C(=O)C(C)(C)CO)C[C@H]5C)nc4)cc3OC(F)(F)F)cc2)c(CO)[nH]1)C(C)C [Example 5-17] |  |  | < 0.1
19 | COC(=O)NC(C(=O)N1C[C@@H](C)C[C@H]1c1nc(-c2ccc(-c3cc(Cl)c(C(=O)Nc4ccc(N5CCN(C(=O)C(C)(C)C)C[C@H]5C)nc4)cc3OC(F)(F)F)cc2)c[nH]1)C1C[C@@H](C)O[C@@H](C)C1 (some centres unmarked) [Example 23-1] |  | A (A represents a pEC50 value between 6 and 8 (EC50 between 1 μM and 10 nM)) | 
20 | [2H]C([2H])([2H])C1(C([2H])([2H])[2H])CC1C(=O)N1CCN(c2ccc(NC(=O)c3ccc(-c4ccc(-c5nc([C@@H]6C[C@H](N(C)C)CN6C(=O)[C@@H](NC(=O)OC)C(C)C)[nH]c5Cl)cc4)c(OC(F)(F)F)c3)cn2)[C@H](C)C1 (some centres unmarked) [Example 6-17] |  |  | < 0.1
21 | COC(=O)N[C@H](C(=O)N1C[C@@H](OC)C[C@H]1c1nc(-c2ccc(-c3ccc(C(=O)Nc4ccc(N5CCN(C(=O)[C@H]6CC6(C)C)C[C@H]5C)nc4)cc3)cc2)c[nH]1)C1CCOCC1 [Example 22-15] |  | D (D represents pEC50>10 (EC50<0.1 nM)) | 
22 | COC(=O)N[C@H](C(=O)N1C[C@@H](C)C[C@H]1c1nc(-c2ccc(-c3cc(Cl)c(NC(=O)c4ccc(N5CCN(C(=O)NC(C)C)C[C@H]5C)nc4)cc3OC(F)(F)F)cc2)c[nH]1)C(C)C [Example 1-72] |  | D (D represents pEC50>10 (EC50<0.1 nM)) | 
23 | COC(=O)N[C@H](C(=O)N1C[C@@H](C)C[C@H]1c1nc(-c2ccc(-c3cc(Cl)c(NC(=O)c4ccc(N5CCN(C(=O)N(CCO)CCO)C[C@H]5C)nc4)cc3OC(F)(F)F)cc2)c[nH]1)C(C)C [Example 12-16] |  |  | 0.1 to 1
24 | COC(=O)N[C@H](C(=O)N1C[C@@H](C)C[C@H]1c1nc(-c2ccc(-c3cc(Cl)c(NC(=O)c4ccc(N5CCN(C(=O)C(C)(C)C)C[C@H]5C)nc4)cc3OC(F)(F)F)cc2)c[nH]1)[C@H](C)OC [Example 13-8] |  |  | < 0.1
25 | COC(=O)N[C@H](C(=O)N1C[C@@H](N2CCCC2)C[C@H]1c1nc(-c2ccc(-c3cc(Cl)c(NC(=O)c4ccc(N5CCN(C(=O)C(C)(C)C)C[C@H]5C)nc4)cc3OC(F)(F)F)cc2)c[nH]1)C(C)C [Example 15-9] |  |  | < 0.1
26 | COC(=O)N[C@H](C(=O)N1C[C@@H](C)C[C@H]1c1nc(-c2ccc(-c3cc(F)c(NC(=O)c4ccc(N5CCN(C(=O)C6CC67CC7)C[C@H]5C)nc4)cc3Cl)cc2)c[nH]1)C(C)C (some centres unmarked) [Example 1-84] |  | C (C represents pEC50 between and 9 and about 10, (EC50 between 1 nM and 0.1 nM)) | 
27 | COC(=O)N[C@H](C(=O)N1C[C@@H](C)C[C@H]1c1nc(-c2ccc(-c3cc(Cl)c(NC(=O)c4ccc(N5CCN(C(=O)CC6CC6)C[C@H]5C)nc4)cc3OC(F)(F)F)cc2)c[nH]1)C(C)C [Example 1-98] |  | C (C represents pEC50 between and 9 and about 10, (EC50 between 1 nM and 0.1 nM)) | 
28 | COC(=O)N1CCN(C(C(=O)N2C[C@@H](C)C[C@H]2c2nc(-c3ccc(-c4cc(Cl)c(NC(=O)c5ccc(N6CCN(C(=O)C(C)(C)C)C[C@H]6C)nc5)cc4OC(F)(F)F)cc3)c[nH]2)c2ccccc2)CC1 (some centres unmarked) [Example 13-4] |  |  | 0.1 to 1
